Measured values published in US20240043859A1, “HERBICIDE-RESISTANT PROTEIN, AND GENE AND USE THEREOF” (QINGDAO KINGAGROOT CHEMICAL COMPOUND CO., LTD., priority 2020, published 2024).
Entries after “also recorded” stand apart in the source; their conditions may differ.

How the values were obtained:
[1] = system: maize B104; experiment: Herbicide-resistance capacity testing of transgenic maize (spray); type: in vivo; settings: 4.48 kg/ha foliage spray, 14 days / 15 days
Text: 1. Vector construction: the overexpression vector was altered from pCambia3300, containing a Bar resistance gene that can be used as a selection marker for bialaphos (glufosinate). The AAD-like gene, QYD42, SEQ ID NO. 83, was linked to the pCambia3300 at the BamH I restriction site by seamless cloning to construct the transgenic vector pQY2329, of which the expression cassette consisted of a maize ubiquitin-1 promoter, the AAD gene and a Nos terminator, as shown in FIG. 7-1.
2. Genetic transformation of maizes: Maize transformation was carried out by the Agrobacterium-mediated immature embryo transformation method (Jones T, Lowe K, Hoerster G, et al. Maize Transformation Using the Morphogenic Genes Baby Boom and Wuschel2. Methods Mol Biol. 2019; 1864:81-93. Doi: 10.1007/978-1-4939-8778-8 6). The Agrobacterium (EHA105) comprising the pQY2329 overexpression vector was inoculated into YEP liquid medium (containing 25 mg/L Rifampicin and 50 mg/L Kanamycin), and shaking-cultured a t 28° C., 220 rmp/min overnight until the OD600 was about 1.0-1.5, then centrifuged at 6000 rmp/min for 10 min to collect the cells into a 50 ml centrifuge tube (sterilized). After discarding the supernatant, the cells were resuspended using MS infect culture medium (containing 68.5 g/L sucrose, 36 g/L glucose, pH 5.8) to OD550=0.8. […]

[2] = system: Arabidopsis thaliana; experiment: Herbicide resistance of transgenic Arabidopsis thaliana seedlings on plate medium (root growth); type: in vivo; settings: plate medium: 2,4-D 0.3 μmol; 2,4-DB sodium 0.7 μmol; MCPA 0.1 μmol
Procedure: Expression in Arabidopsis thaliana was regulated by its AtUbi10 Arabidopsis thaliana ubiquitin promoter and the MAS (mannopine synthase) terminator. Hygromycin resistance gene (HygR=hpt) served as the selection marker.
Preparation of Agrobacterium infection solution: An activated Agrobacterium (GV3101) monoclone was picked and inoculated in 30 ml YEP liquid medium [yeast powder 10 g/L, tryptone 10 g/L, NaCl 5 g/L, 25 mg/L Rifampicin and 50 mg/L Kanamycin], shaking-cultured at 200 rmp/min, 28° C. overnight until the OD600 was about 1.0-1.5, then centrifuged at 6000 rmp/min for 10 min to collect the bacteria, and the supernatant was discarded. Arabidopsis thaliana infection solution (sucrose 50 g/L, Silwet L-77 300 μL/L, no need to adjust pH) was used to resuspend the cells to OD600=0.8 for later use.
Genetic transformation of Arabidopsis thaliana by flower dipping: Before transformation of Arabidopsis thaliana plants, attentions were paid to whether the plants were growing well, the inflorescences were abundant, and no stress response occurred. The first transformation was performed when plants were about 20 cm high. Plants could be properly watered if the soil was dry. The grown siliques were cut off with scissors the day before transformation. The inflorescences of the plants to be transformed were soaked in the above-mentioned Agrobacterium solution for 30 seconds to 1 minute, which was stirred gently during the period. And a layer of liquid film should appear on the infiltrated plant. The transformed plants were cultured in a dark environment for 24 hours, and then taken out and grown in a normal light environment. A second transformation could be performed in the same way a week later. […]

Question: `O=C(O)COc1ccc(Cl)cc1Cl` [2,4-D, (2,4-dichlorophenoxy)acetic acid, reference compound] was tested. Which “Effect of the herbicide spray on non-transgenic maize B104” value [1] did it give?
Answer: apparent phytotoxicity, root nodules, reduced root system and easily-lodging plant; also recorded: stem bases of maize B104 are swollen

Question: What about the “Effect of the herbicide on seminal roots of wild-type Col-0” value [2] of the same molecule?
Answer: uncapable of growing roots; also recorded: seminal roots are inhibited; also recorded: seminal roots are not able to grow
